Read-outs that look alike come from different tables or passages of the source.
Assays:
Type in all cases: cell-based
[1] = molecular target: T1, GluN1a/2A (Homo sapiens, UniProt Q05586+Q12879); assay: Selectivity: whole-cell normalized peak current of NMDA receptor GluN1a/2A; details: 16 µM compound, HEK293t, −60 mV
T1 construct: expressed in transfected cells; host or cells: HEK293t cells
Method: (§1) To evaluate the selectivity of CIC-1 and CIC-2 derivatives, their effects on GluN1a/2A and GluN1a/2B of the NMDA receptors were tested. The normalized peak current responses of the subunits alone and with CIC-1 and CIC-2 were determined (Figure 4).
(§2) Figure 4 The inhibitory actions of Isoxazole-4-carboxamide derivatives on the whole-cell currents mediated by GluA2, GluA2/3 AMPA receptor subtypes and GluN1a/2A, […] receptor subtypes. (a) represents data for CIC-1 and CIC-2 compounds. AMPA- and NMDA-induced currents (black bars) are then compared to currents recorded in the presence of 16 µM CIC compounds (white bars). Panels (b–e) show representative traces of whole-cell current responses to a 1 ms administration of 10 mM glutamate for the subunits. The traces show normalized responses for glutamate alone (black) and glutamate in combination with CIC compounds (color-coded). The recording was performed in HEK293t cells at −60 mV, pH 7.4, and 22 °C. Data present mean ± SD from 3–4 different experiments. *** p < 0.001; and “ns” indicates not significant.

[2] = molecular target: T2, GluA2 (Rattus norvegicus, UniProt P19491); assay: Whole-cell patch clamp recordings of homomeric GluA2 AMPA receptor currents and kinetics in transfected HEK293t cells; details: for Amplitude (peak whole-cell current in presence of compound): 16 µM compound co-applied with agonist, HEK293t, −60 mV, pH 7.4, 22 °C; for Amplitude (peak whole-cell current in presence of compound) / A/AI (amplitude ratio, glutamate alone / with compound) / t deact (weighted deactivation time constant) / t des (weighted desensitization time constant) / Amplitude, applying glutamate alone after compound: mean ± SD; for Amplitude (peak whole-cell current in presence of compound) / A/AI (amplitude ratio, glutamate alone / with compound) / Amplitude, applying glutamate alone after compound: n = 10; for A/AI (amplitude ratio, glutamate alone / with compound): 16 µM compound; for t deact (weighted deactivation time constant): 10 mM glutamate for 1 ms; for t deact (weighted deactivation time constant) / t des (weighted desensitization time constant): with compound; for t des (weighted desensitization time constant): 10 mM glutamate for 500 ms; for Amplitude, applying glutamate alone after compound: glutamate alone after the compound; for Effect on desensitization kinetics (τdes), in words / Effect on deactivation kinetics (τdeac), in words: versus glutamate alone, one-way ANOVA
T2 construct: expressed in transfected cells; host or cells: HEK293T (HEK293) cells, transient co-transfection with a separate EGFP vector
T2 sequence (P19491 22-883 isoform P19491-2 limits assumed): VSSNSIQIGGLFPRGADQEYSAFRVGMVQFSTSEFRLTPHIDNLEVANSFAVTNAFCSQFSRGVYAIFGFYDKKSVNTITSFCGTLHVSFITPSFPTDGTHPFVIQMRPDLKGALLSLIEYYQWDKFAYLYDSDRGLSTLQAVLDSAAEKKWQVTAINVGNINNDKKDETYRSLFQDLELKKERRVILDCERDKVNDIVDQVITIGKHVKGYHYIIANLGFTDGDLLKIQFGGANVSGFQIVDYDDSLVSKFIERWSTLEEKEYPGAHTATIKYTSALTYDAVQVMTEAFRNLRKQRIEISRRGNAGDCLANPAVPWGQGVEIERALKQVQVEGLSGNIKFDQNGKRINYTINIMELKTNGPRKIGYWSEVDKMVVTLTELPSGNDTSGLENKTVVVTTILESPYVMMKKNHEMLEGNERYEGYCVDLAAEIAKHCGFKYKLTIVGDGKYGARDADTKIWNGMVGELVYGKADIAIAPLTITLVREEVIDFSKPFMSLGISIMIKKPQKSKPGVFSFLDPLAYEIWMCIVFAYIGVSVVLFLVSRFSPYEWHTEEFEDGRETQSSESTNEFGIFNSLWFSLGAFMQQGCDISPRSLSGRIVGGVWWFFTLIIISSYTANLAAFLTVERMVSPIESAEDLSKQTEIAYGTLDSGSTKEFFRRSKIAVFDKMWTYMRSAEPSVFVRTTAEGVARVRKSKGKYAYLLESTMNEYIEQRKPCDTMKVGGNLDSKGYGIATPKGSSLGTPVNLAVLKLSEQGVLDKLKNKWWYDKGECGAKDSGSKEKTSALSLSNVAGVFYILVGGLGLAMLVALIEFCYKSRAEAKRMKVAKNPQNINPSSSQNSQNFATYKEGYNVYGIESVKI
From the text: (§3) The AMPA receptor subunits utilized in this study were of the flip isoform. The flip variant of the GluA2 subunit was originally provided by S. F. Heinemann (Salk Institute, La Jolla, CA, USA) in a pBlueScript plasmid. This plasmid was subsequently sub-cloned into a pRK vector to enable expression in HEK293 cells, which were sourced from Sigma, Germany. Additionally, the unedited version of GluA2 (R607Qjj, flip isoform) and enhanced green fluorescent protein (EGFP), both contained in pRK5 vectors, were generously supplied by P. H. Seeburg (Max Planck Institute for Medical Research, Heidelberg, Germany). Chemical-mediated ways induced transfection. GluA2 homomers were expressed into HEK293 cells by the co-transfection of 1 μg GluA2 plasmid with an equal amount of GFP expression vectors (1:1 ratio) into the cells. In addition, co-transfection was conducted for heteromeric GluA2/3 subunits at a ratio of 1:1.2 for optimum expression. For post-transfection experiments, cells were plated in 10% fetal calf serum and antibiotics in DMEM in Petri plates. These cultures were maintained under carefully controlled conditions—37 °C and 5% CO2 within a humidified incubator. The selection of cells for recordings was based on fluorescence intensity. Highly GFP-positive cells were identified and isolated for further analysis, ensuring precise targeting of transfected populations.
(§4) Whole-cell patch clamp recordings were performed on HEK293t cells 36–48 h after transfection. Experiments were conducted at 22 °C, maintaining a holding potential of −60 mV, using an Integrated Patch Amplifier (IPA) from Sutter Instruments (Novato, CA, USA). Data acquisition was managed with SutterPatch Software v. 1.1.1 (Sutter Instruments), employing a sampling rate of 10 kHz and setting the low-pass filter at 2 kHz. […] The external solution contained 150 mM NaCl, 2.8 mM KCl, 0.5 mM MgCl2, 2 mM CaCl2, and 10 mM HEPES, adjusted to a pH of 7.4 using NaOH. The internal pipette solution was composed of 110 mM CsF, 30 mM CsCl, 4 mM NaCl, 0.5 mM CaCl2, 10 mM trypsin-EDTA solution B (0.25%), 0.05% EDTA, and 10 mM HEPES, with the pH adjusted to 7.2 using CsOH.
(§5) A dual-barrel glass pipette (theta tube) was employed for the rapid delivery of glutamate and other solutions. The theta tube was attached to a high-speed piezoelectric solution exchange system (Automate Scientific, Berkeley, CA, USA). To assess the efficiency of solution exchange, open-tip potentials were measured by applying solutions with different ionic compositions after the patch was expelled from the pipette. The time required for a 10–90% change in the solution was generally less than […].
(§6) Data analysis was performed with Igor Pro8.04 software (Wave Metrics, Inc., Portland, OR, USA). AMPA receptor deactivation and desensitization kinetics were measured by applying 10 mM glutamate for 1 ms and 500 ms, respectively. The currents from the AMPA receptor were fitted to a double-exponential model to quantify deactivation and desensitization time constants measured from the double-exponential fits. The weighted tau (τw) is calculated as: τw = (τf × af) + (τs × as), where τf and τs are the time constants of fast and slow exponential components and af and as represent their relative amplitudes.
(§7) Data are presented as the mean ± standard deviation (SD). The total number of HEK293 cells engaged was n = 10. The experimental groups were compared to the wild type using a one-way analysis of variance (ANOVA). Statistical significance was assessed using p values: p < 0.05 (*) indicated significance, p < 0.01 (**) indicated high significance, and p < 0.001 (***) indicated very high significance. The value “ns” indicates non-significance. Concentration–response relationships were modeled using the Hill equation with the resulting combined plots via GraphPad Prism software (version 6.01, GraphPad Software). The data presented are the means from 3–4 experimental replicates. […]

[3] = molecular target: T3, GluA2/3 (UniProt P19491+P42263); assay: Whole-cell patch clamp recordings of heteromeric GluA2/3 AMPA receptor currents and kinetics in transfected HEK293t cells; details: for Amplitude (peak whole-cell current in presence of compound): 16 µM compound co-applied with agonist, HEK293t, −60 mV, pH 7.4, 22 °C; for Amplitude (peak whole-cell current in presence of compound) / A/AI (amplitude ratio, glutamate alone / with compound) / t deact (weighted deactivation time constant) / t des (weighted desensitization time constant) / Amplitude, applying glutamate alone after compound: mean ± SD; for Amplitude (peak whole-cell current in presence of compound) / A/AI (amplitude ratio, glutamate alone / with compound) / Amplitude, applying glutamate alone after compound: n = 10; for A/AI (amplitude ratio, glutamate alone / with compound): 16 µM compound; for t deact (weighted deactivation time constant): 10 mM glutamate for 1 ms; for t deact (weighted deactivation time constant) / t des (weighted desensitization time constant): with compound; for t des (weighted desensitization time constant): 10 mM glutamate for 500 ms; for Amplitude, applying glutamate alone after compound: glutamate alone after the compound; for Effect on desensitization kinetics (τdes), in words / Effect on deactivation kinetics (τdeac), in words: versus glutamate alone, one-way ANOVA
T3 construct: expressed in transfected cells; host or cells: HEK293T (HEK293) cells, transient co-transfection
T3 sequence (P19491 22-883 isoform P19491-2 limits assumed): as above
T3 sequence (P42263 29-894 isoform P42263-2 limits assumed): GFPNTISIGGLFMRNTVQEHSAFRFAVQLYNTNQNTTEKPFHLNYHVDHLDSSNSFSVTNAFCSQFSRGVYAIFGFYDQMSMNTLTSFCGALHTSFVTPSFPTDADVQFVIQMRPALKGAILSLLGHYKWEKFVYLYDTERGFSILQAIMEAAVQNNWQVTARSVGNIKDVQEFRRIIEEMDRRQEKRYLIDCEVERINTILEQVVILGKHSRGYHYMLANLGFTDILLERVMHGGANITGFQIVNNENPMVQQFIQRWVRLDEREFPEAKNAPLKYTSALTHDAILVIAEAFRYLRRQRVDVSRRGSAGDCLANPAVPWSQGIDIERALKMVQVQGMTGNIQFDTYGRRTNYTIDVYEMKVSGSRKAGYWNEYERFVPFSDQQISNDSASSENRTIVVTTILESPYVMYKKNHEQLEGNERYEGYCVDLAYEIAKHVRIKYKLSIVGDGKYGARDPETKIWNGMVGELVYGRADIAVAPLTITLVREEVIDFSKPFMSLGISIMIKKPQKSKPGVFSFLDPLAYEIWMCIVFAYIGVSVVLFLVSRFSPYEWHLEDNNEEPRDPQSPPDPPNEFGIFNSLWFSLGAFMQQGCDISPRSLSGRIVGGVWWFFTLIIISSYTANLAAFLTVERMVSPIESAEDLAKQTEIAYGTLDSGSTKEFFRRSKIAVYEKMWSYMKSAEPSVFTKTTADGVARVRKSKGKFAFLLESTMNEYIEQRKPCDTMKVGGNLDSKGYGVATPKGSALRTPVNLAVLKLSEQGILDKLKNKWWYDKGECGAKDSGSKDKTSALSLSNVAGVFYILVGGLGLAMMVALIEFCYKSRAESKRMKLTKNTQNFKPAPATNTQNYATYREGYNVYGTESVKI
From the text: as §3, §4, §5, §6, §7

[4] = molecular target: T4, GluN1a/2B (Homo sapiens, UniProt Q05586+Q13224); assay: Selectivity: whole-cell normalized peak current of NMDA receptor GluN1a/2B; details: 16 µM compound, HEK293t, −60 mV
T4 construct: expressed in transfected cells; host or cells: HEK293t cells
T4 sequence (Q13224 27-1484, other chains not shown): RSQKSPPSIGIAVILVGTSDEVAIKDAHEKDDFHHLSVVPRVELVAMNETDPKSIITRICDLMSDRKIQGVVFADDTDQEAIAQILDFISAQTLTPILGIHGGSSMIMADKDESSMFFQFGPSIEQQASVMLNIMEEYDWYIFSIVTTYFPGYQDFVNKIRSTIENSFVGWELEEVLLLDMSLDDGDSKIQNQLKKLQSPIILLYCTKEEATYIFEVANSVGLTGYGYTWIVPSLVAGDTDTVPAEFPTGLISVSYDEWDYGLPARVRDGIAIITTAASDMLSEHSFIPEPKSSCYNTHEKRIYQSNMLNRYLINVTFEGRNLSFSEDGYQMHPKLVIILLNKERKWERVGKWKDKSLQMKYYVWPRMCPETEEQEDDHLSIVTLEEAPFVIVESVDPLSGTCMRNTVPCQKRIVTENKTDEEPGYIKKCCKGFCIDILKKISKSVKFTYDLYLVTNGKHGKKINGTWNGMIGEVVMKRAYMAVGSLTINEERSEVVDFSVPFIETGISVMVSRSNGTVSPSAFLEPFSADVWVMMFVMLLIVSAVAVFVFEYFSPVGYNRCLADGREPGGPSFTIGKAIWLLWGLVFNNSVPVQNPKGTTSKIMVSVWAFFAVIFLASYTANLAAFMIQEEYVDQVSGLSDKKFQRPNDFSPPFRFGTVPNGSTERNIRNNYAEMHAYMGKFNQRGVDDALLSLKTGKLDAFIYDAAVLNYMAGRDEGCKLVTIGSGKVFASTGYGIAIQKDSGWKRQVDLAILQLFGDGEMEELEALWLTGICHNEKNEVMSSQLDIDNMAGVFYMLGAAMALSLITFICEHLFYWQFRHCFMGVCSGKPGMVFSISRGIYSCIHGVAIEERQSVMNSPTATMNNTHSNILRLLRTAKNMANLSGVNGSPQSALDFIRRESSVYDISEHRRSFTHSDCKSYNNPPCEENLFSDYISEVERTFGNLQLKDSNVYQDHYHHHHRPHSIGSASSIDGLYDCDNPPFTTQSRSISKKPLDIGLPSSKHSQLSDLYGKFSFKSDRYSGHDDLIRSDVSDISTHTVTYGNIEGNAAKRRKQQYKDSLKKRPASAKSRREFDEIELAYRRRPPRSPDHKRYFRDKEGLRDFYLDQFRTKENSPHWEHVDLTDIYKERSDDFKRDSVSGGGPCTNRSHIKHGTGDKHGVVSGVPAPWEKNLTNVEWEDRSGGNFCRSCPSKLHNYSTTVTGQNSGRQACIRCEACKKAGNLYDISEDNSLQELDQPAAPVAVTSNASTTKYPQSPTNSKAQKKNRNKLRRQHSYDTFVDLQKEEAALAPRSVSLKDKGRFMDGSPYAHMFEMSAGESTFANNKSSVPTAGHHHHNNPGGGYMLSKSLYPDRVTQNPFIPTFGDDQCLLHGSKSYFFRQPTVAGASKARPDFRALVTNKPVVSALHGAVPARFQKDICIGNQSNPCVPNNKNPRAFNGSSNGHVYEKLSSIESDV
Method: as §1, §2

[5] = concentration–response fit, read-out: Log IC50 (converted)
[6] = inhibition of whole-cell peak current, concentration–response, Hill fit, read-out: IC50

T1 sequence (Q12879 23-1464, other chains not shown): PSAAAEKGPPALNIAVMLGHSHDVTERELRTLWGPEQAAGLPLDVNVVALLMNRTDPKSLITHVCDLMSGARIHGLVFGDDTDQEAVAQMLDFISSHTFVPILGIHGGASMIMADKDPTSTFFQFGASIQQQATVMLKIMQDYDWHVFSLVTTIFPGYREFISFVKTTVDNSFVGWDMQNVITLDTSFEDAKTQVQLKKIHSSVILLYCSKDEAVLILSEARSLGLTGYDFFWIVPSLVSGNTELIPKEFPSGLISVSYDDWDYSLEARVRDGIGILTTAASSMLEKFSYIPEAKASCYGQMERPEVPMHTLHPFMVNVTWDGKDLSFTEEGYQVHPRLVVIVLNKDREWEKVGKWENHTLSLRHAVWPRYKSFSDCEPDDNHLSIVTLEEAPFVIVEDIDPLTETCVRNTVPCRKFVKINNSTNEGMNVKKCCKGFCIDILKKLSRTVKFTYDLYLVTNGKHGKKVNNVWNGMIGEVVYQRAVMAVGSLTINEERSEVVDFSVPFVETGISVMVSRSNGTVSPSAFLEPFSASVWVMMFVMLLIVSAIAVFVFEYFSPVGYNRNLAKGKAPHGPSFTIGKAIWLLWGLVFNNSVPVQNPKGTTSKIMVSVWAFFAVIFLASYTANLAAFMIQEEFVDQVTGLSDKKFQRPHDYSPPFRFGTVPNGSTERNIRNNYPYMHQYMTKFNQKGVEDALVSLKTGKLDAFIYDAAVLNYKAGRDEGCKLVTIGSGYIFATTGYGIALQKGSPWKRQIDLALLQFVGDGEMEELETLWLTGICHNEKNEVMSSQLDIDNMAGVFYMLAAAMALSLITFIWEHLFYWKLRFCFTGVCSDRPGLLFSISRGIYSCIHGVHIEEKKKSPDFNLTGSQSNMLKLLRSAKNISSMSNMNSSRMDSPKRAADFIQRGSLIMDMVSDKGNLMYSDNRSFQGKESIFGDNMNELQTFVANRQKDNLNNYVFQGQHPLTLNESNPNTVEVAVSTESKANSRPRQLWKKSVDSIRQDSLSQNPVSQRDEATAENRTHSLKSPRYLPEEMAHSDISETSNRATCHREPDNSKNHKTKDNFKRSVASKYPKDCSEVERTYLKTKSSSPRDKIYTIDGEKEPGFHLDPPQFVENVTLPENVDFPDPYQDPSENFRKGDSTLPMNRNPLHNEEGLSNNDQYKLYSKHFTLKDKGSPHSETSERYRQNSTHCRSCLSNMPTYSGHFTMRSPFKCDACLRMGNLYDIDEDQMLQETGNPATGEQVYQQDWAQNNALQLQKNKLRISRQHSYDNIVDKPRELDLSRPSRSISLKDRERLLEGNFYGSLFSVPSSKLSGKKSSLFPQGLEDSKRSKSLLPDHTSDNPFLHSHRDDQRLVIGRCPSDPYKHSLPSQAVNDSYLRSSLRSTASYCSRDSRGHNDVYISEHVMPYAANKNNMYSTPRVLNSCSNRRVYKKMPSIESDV

Amplitude (peak whole-cell current in presence of compound) [2] [pA] | A/AI (amplitude ratio, glutamate alone / with compound) [2] | t deact (weighted deactivation time constant) [2] [ms] | IC50 [2, 5] [µM] | Amplitude, applying glutamate alone after compound [2] [pA] | IC50 [2, 6] [µM] | Amplitude (peak whole-cell current in presence of compound) [3] [pA] | A/AI (amplitude ratio, glutamate alone / with compound) [3] | t deact (weighted deactivation time constant) [3] [ms] | IC50 [3, 5] [µM] | Amplitude, applying glutamate alone after compound [3] [pA] | IC50 [3, 6] [µM] | Structure (SMILES) | t des (weighted desensitization time constant) [2] [ms] | Effect on desensitization kinetics (τdes), in words [2] | t des (weighted desensitization time constant) [3] [ms] | Effect on desensitization kinetics (τdes), in words [3] | Effect on deactivation kinetics (τdeac), in words [2] | Effect on deactivation kinetics (τdeac), in words [3] | other results
160 ± 12 | 7.79±0.42 | 7.9 ± 0.3 | 3.16 | 1213±94 | 3.18 | 75 ± 6 | 7.65±0.45 | 7.8 ± 0.4 | 3.31 | 552±44 | 3.32 | COc1cc(NC(=O)c2c(-c3c(Cl)cccc3Cl)noc2C)c(OC)cc1Cl [CIC-2, N-(4-chloro-2,5-dimethoxyphenyl)-3-(2,6-dichlorophenyl)-5-methylisoxazole-4-carboxamide] | 0.7 ± 0.1 | accelerating desensitization | 0.8 ± 0.1 | accelerating desensitization |  |  | Effect on normalized peak current [1]: statistically not significant; Increase of deactivation time constant (τdeac) ([2]; versus control): approximately 4 fold; Increase of deactivation time constant (τdeac) ([3]; versus control): approximately 4 fold; Effect on normalized peak current [4]: statistically not significant
228±15 | 5.42±0.07 | 6.1 ± 0.3 | 5.01 | 1198±99 | 5.03 | 105±7 | 5.37±016 | 6.2 ± 0.3 | 5.13 | 548±40 | 5.14 | COc1ccc(NC(=O)c2c(-c3c(Cl)cccc3Cl)noc2C)c(OC)c1 [CIC-5, 3-(2,6-dichlorophenyl)-N-(2,4-dimethoxyphenyl)-5-methylisoxazole-4-carboxamide] | 1.0 ± 0.1 | accelerated desensitization, although to a lesser degree | 1.0 ± 0.1 | accelerated desensitization, although to a lesser degree | statistically significant prolongation of τdeac | statistically significant prolongation of τdeac | 
256±19 | 4.84±0.23 | 5.4 ± 0.2 | 5.75 | 1202±120 | 5.74 | 116±10 | 4.76±0.14 | 5.3 ± 0.3 | 5.75 | 534±56 | 5.76 | COc1ccc(NC(=O)c2c(-c3c(Cl)cccc3Cl)noc2C)cc1OC [CIC-6, 3-(2,6-dichlorophenyl)-N-(3,4-dimethoxyphenyl)-5-methylisoxazole-4-carboxamide] | 1.5 ± 0.1 | accelerated desensitization, although to a lesser degree | 1.6 ± 0.1 | accelerated desensitization, although to a lesser degree | statistically significant prolongation of τdeac | statistically significant prolongation of τdeac | 
280±13 | 4.53±0.21 | 5.1 ± 0.2 | 6.03 | 1231±106 | 6.03 | 120±15 | 4.49±0.21 | 5.2 ± 0.2 | 6.17 | 524±76 | 6.14 | COc1ccccc1Oc1ccc(NC(=O)c2c(-c3c(Cl)cccc3Cl)noc2C)cc1 [CIC-7, 3-(2,6-dichlorophenyl)-N-(4-(2-methoxyphenoxy)phenyl)-5-methylisoxazole-4-carboxamide] | 1.7 ± 0.1 | accelerated desensitization, although to a lesser degree | 1.8 ± 0.1 | accelerated desensitization, although to a lesser degree | statistically significant prolongation of τdeac | statistically significant prolongation of τdeac | 
359±28 | 3.53±0.15 | 3.0 ± 0.2 | 7.08 | 1233±147 | 7.02 | 141±29 | 3.46±0.16 | 2.9 ± 0.2 | 7.08 | 476±112 | 7.13 | Cc1onc(-c2c(F)cccc2Cl)c1C(=O)Nc1ccc(OC(F)(F)F)cc1 [CIC-11, 3-(2-chloro-6-fluorophenyl)-5-methyl-N-(4-(trifluoromethoxy)phenyl)isoxazole-4-carboxamide] |  | did not significantly alter desensitization kinetics | 2.3 ± 0.1 | did not significantly alter desensitization kinetics | did not elicit statistically significant changes | did not elicit statistically significant changes | 

Reference: paper PMC11932207, “Regulating AMPA Receptors with Isoxazole-4-Carboxamide Derivatives: An Electrophysiological Study” (Journal of Xenobiotics, 2025)
